Laboratory results taken from patent US9474790B2, “Stable, protracted GLP-1/glucagon receptor co-agonists for medical use” (Novo Nordisk A/S, priority 2013, dated 2016).
Numbered stars: 1 amine (or outer) side, 2 acyl side, 3 side chain; on linkers, the order of the positions; unused ones are H or OH. Square brackets hold non-standard residues; d marks the D form. Side chains are listed from the residue outwards. Peptide text beside a SMILES is read from it. * marks the point of attachment. C18 diacid = O=C(O)CCCCCCCCCCCCCCCCC(=O)*; γGlu = O=C(O)[C@H](CCC(=O)[*:2])N[*:1]; Ac4c = NC1(C(=O)O)CCC1; AEEA = NCCOCCOCC(=O)O; Aib = CC(C)(N)C(=O)O

Target: T1, human glucagon receptor (Homo sapiens, UniProt P47871)
T1 construct: expressed in transfected cells; host or cells: BHK cells (parent BHK570, CRE luciferase clone BHK/KZ10-20-48), clone pLJ6'-4-25
Assay: Glucagon receptor potency, CRE luciferase reporter gene assay in BHK cells
Assay type: cell-based
Conditions: BHK cells expressing human glucagon receptor, read-out: EC50 GlucR
How it was run: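 EC50 (pM) comes from a four-parameter fit of luciferase luminescence after 3 h at 37 °C with compound at final 1×10EE-13–1×10EE-6 M. Cells: BHK570-derived line carrying human glucagon receptor plus CRE-luciferase, 5×10EE3/well, in assay medium with 2% ovalbumin, 0.2% Pluronic F-68.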

T1 sequence (P47871 26-477): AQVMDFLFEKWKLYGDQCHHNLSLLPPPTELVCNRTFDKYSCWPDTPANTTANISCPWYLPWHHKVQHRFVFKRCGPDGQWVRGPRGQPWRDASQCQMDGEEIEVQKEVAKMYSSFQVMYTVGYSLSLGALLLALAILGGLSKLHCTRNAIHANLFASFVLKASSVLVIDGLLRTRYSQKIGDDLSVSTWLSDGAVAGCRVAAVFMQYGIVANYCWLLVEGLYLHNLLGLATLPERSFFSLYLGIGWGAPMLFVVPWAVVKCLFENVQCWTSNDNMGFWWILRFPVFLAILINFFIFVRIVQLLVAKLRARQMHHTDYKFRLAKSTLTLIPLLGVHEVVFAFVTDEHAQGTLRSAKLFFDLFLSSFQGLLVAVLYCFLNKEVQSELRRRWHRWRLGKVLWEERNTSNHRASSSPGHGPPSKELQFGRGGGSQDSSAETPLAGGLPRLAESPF

SMILES | EC50 [pM]
CC(C)C[C@H](NC(=O)[C@H](Cc1ccc(O)cc1)NC(=O)[C@H](CCCCN)NC(=O)[C@H](CO)NC(=O)[C@H](CC(C)C)NC(=O)[C@H](CC(=O)O)NC(=O)[C@H](CO)NC(=O)[C@@H](NC(=O)[C@H](Cc1ccccc1)NC(=O)[C@@H](NC(=O)CNC(=O)[C@H](CCC(N)=O)NC(=O)C(C)(C)NC(=O)[C@@H](N)Cc1c[nH]cn1)[C@@H](C)O)[C@@H](C)O)C(=O)N[C@@H](CCC(=O)O)C(=O)N[C@@H](CO)C(=O)N[C@@H](CCCCN)C(=O)N[C@@H](CCCNC(=N)N)C(=O)N[C@@H](C)C(=O)N[C@@H](CCCNC(=N)N)C(=O)N[C@@H](CCC(=O)O)C(=O)N[C@@H](Cc1ccccc1)C(=O)N[C@H](C(=O)N[C@@H](CCC(N)=O)C(=O)N[C@@H](Cc1c[nH]c2ccccc12)C(=O)N[C@@H](CC(C)C)C(=O)N[C@@H](CC(C)C)C(=O)N[C@@H](CCCCNC(=O)CC[C@H](NC(=O)CC[C@H](NC(=O)[C@H](CO)NC(=O)[C@H](CCC(=O)O)NC(=O)[C@H](CO)NC(=O)CC[C@H](NC(=O)CC[C@H](NC(=O)CCCCCCCCCCCCCCCCC(=O)O)C(=O)O)C(=O)O)C(=O)O)C(=O)O)C(=O)N[C@H](C(N)=O)[C@@H](C)O)C(C)C [Example 52] (H-H[Aib]QGTFTSDLSKYLESKRAREFVQWLLK([γGlu-γGlu-Ser-Glu-Ser-γGlu-γGlu-C18 diacid])T-NH2; N-terminus assumed) | 16
CC(C)C[C@H](NC(=O)[C@H](Cc1ccc(O)cc1)NC(=O)[C@H](CCCCN)NC(=O)[C@H](CO)NC(=O)[C@H](CC(C)C)NC(=O)[C@H](CC(=O)O)NC(=O)[C@H](CO)NC(=O)[C@@H](NC(=O)[C@H](Cc1ccccc1)NC(=O)[C@@H](NC(=O)CNC(=O)[C@H](CCC(N)=O)NC(=O)C(C)(C)NC(=O)[C@@H](N)Cc1c[nH]cn1)[C@@H](C)O)[C@@H](C)O)C(=O)N[C@@H](CCC(=O)O)C(=O)N[C@@H](CO)C(=O)N[C@@H](CCCCN)C(=O)N[C@@H](CCCNC(=N)N)C(=O)N[C@@H](C)C(=O)N[C@@H](CCCNC(=N)N)C(=O)N[C@@H](CCC(=O)O)C(=O)N[C@@H](Cc1ccccc1)C(=O)N[C@H](C(=O)N[C@@H](CCC(N)=O)C(=O)N[C@@H](Cc1c[nH]c2ccccc12)C(=O)N[C@@H](CC(C)C)C(=O)N[C@@H](CC(C)C)C(=O)N[C@@H](CCCCNC(=O)CC[C@H](NC(=O)CC[C@H](NC(=O)[C@H](CO)NC(=O)[C@H](CCC(=O)O)NC(=O)[C@H](CO)NC(=O)CC[C@H](NC(=O)CC[C@H](NC(=O)CCCCCCCCCCCCCCCCC(=O)O)C(=O)O)C(=O)O)C(=O)O)C(=O)O)C(=O)N[C@H](C(N)=O)[C@@H](C)O)C(C)C [Example 54, N^ε28-[(4S)-4-carboxy-4-[[(4S)-4-carboxy-4-[[(2S)-2-[[(2S)-4-carboxy-2-[[(2S)-2-[[(4S)-4-carboxy-4-[[(4S)-4-carboxy-4-(17-carboxyheptadecanoylamino)butanoyl]amino]butanoyl]amino]-3-hydroxypropanoyl]amino]butanoyl]amino]-3-hydroxypropanoyl]amino]butanoyl]amino]butanoyl]-[Aib2,Leu10,Glu15,Lys17,Arg20,Glu21,Leu27,Lys28]-Glucagon amide] (H-H[Aib]QGTFTSDLSKYLESKRAREFVQWLLK([γGlu-γGlu-Ser-Glu-Ser-γGlu-γGlu-C18 diacid])T-NH2; N-terminus assumed) | 12.7

Stronger by EC50, values ahead:

EC50 [pM] | SMILES
5 | CC(C)C[C@H](NC(=O)[C@H](CC(=O)O)NC(=O)[C@H](CC(C)C)NC(=O)[C@H](Cc1ccc(O)cc1)NC(=O)[C@H](CCCCN)NC(=O)[C@H](CO)NC(=O)[C@H](CC(C)C)NC(=O)[C@H](CC(=O)O)NC(=O)[C@H](CO)NC(=O)[C@@H](NC(=O)[C@H](Cc1ccccc1)NC(=O)[C@@H](NC(=O)CNC(=O)[C@H](CCC(N)=O)NC(=O)C1(NC(=O)[C@@H](N)Cc2c[nH]cn2)CCC1)[C@@H](C)O)[C@@H](C)O)C(=O)N[C@@H](CCCCN)C(=O)N[C@@H](CCCNC(=N)N)C(=O)N[C@@H](C)C(=O)N[C@@H](CCCNC(=N)N)C(=O)N[C@@H](CCC(=O)O)C(=O)N[C@@H](Cc1ccccc1)C(=O)N[C@H](C(=O)N[C@@H](CCC(N)=O)C(=O)N[C@@H](Cc1c[nH]c2ccccc12)C(=O)N[C@@H](CC(C)C)C(=O)N[C@@H](CC(C)C)C(=O)N[C@@H](CCCCNC(=O)CC[C@H](NC(=O)CC[C@H](NC(=O)COCCOCCNC(=O)COCCOCCNC(=O)CC[C@H](NC(=O)CC[C@H](NC(=O)CCCCCCCCCCCCCCCCC(=O)O)C(=O)O)C(=O)O)C(=O)O)C(=O)O)C(=O)N[C@H](C(N)=O)[C@@H](C)O)C(C)C [Example 47, N^ε28-[(4S)-4-carboxy-4-[[(4S)-4-carboxy-4-[[2-[2-[2-[[2-[2-[2-[[(4S)-4-carboxy-4-[[(4S)-4-carboxy-4-(17-carboxyheptadecanoylamino)butanoyl]amino]butanoyl]amino]ethoxy]ethoxy]acetyl]amino]ethoxy]ethoxy]acetyl]amino]butanoyl]amino]butanoyl]-[Acb2,Leu10,Leu16,Lys17,Arg20,Glu21,Leu27,Lys28]-Glucagon amide] (H-H[Ac4c]QGTFTSDLSKYLDLKRAREFVQWLLK([γGlu-γGlu-AEEA-AEEA-γGlu-γGlu-C18 diacid])T-NH2; N-terminus assumed)
4 | CC(C)C[C@H](NC(=O)[C@H](CC(=O)O)NC(=O)[C@H](CC(C)C)NC(=O)[C@H](Cc1ccc(O)cc1)NC(=O)[C@H](CCCCN)NC(=O)[C@H](CO)NC(=O)[C@H](CC(C)C)NC(=O)[C@H](CC(=O)O)NC(=O)[C@H](CO)NC(=O)[C@@H](NC(=O)[C@H](Cc1ccccc1)NC(=O)[C@@H](NC(=O)CNC(=O)[C@H](CCC(N)=O)NC(=O)C1(NC(=O)[C@@H](N)Cc2c[nH]cn2)CCC1)[C@@H](C)O)[C@@H](C)O)C(=O)N[C@@H](CCCNC(=N)N)C(=O)N[C@@H](CCCNC(=N)N)C(=O)N[C@@H](C)C(=O)N[C@@H](CCCNC(=N)N)C(=O)N[C@@H](CCC(=O)O)C(=O)N[C@@H](Cc1ccccc1)C(=O)N[C@H](C(=O)N[C@@H](CCC(N)=O)C(=O)N[C@@H](Cc1c[nH]c2ccccc12)C(=O)N[C@@H](CC(C)C)C(=O)N[C@@H](CC(C)C)C(=O)N[C@@H](CCCCNC(=O)CC[C@H](NC(=O)CC[C@H](NC(=O)COCCOCCNC(=O)COCCOCCNC(=O)CC[C@H](NC(=O)CC[C@H](NC(=O)CCCCCCCCCCCCCCCCC(=O)O)C(=O)O)C(=O)O)C(=O)O)C(=O)O)C(=O)N[C@H](C(N)=O)[C@@H](C)O)C(C)C [Example 49, N^ε28-[(4S)-4-carboxy-4-[[(4S)-4-carboxy-4-[[2-[2-[2-[[2-[2-[2-[[(4S)-4-carboxy-4-[[(4S)-4-carboxy-4-(17-carboxyheptadecanoylamino)butanoyl]amino]butanoyl]amino]ethoxy]ethoxy]acetyl]amino]ethoxy]ethoxy]acetyl]amino]butanoyl]amino]butanoyl]-[Acb2,Leu10,Leu16,Arg20,Glu21,Leu27,Lys28]-Glucagon amide] (H-H[Ac4c]QGTFTSDLSKYLDLRRAREFVQWLLK([γGlu-γGlu-AEEA-AEEA-γGlu-γGlu-C18 diacid])T-NH2; N-terminus assumed)
4 | CC(C)C[C@H](NC(=O)[C@H](Cc1c[nH]c2ccccc12)NC(=O)[C@H](CCC(N)=O)NC(=O)[C@@H](NC(=O)[C@H](Cc1ccccc1)NC(=O)[C@H](CCC(=O)O)NC(=O)[C@H](CCCNC(=N)N)NC(=O)[C@H](C)NC(=O)[C@H](CCCNC(=N)N)NC(=O)[C@H](CCCNC(=N)N)NC(=O)C(C)(C)NC(=O)[C@H](CC(=O)O)NC(=O)[C@H](CC(C)C)NC(=O)[C@H](Cc1ccc(O)cc1)NC(=O)[C@H](CCCCN)NC(=O)[C@H](CO)NC(=O)[C@H](CC(C)C)NC(=O)[C@H](CC(=O)O)NC(=O)[C@H](CO)NC(=O)[C@@H](NC(=O)[C@H](Cc1ccccc1)NC(=O)[C@@H](NC(=O)CNC(=O)[C@H](CCC(N)=O)NC(=O)C(C)(C)NC(=O)[C@@H](N)Cc1c[nH]cn1)[C@@H](C)O)[C@@H](C)O)C(C)C)C(=O)N[C@@H](CC(C)C)C(=O)N[C@@H](CCCCNC(=O)CC[C@H](NC(=O)CC[C@H](NC(=O)COCCOCCNC(=O)COCCOCCNC(=O)CC[C@H](NC(=O)CCCCCCCCCCCCCCCCC(=O)O)C(=O)O)C(=O)O)C(=O)O)C(=O)N[C@H](C(N)=O)[C@@H](C)O [Example 51, N^ε28-[(4S)-4-carboxy-4-[[(4S)-4-carboxy-4-[[2-[2-[2-[[2-[2-[2-[[(4S)-4-carboxy-4-(17-carboxyheptadecanoylamino)butanoyl]amino]ethoxy]ethoxy]acetyl]amino]ethoxy]ethoxy]acetyl]amino]butanoyl]amino]butanoyl]-[Aib2,Leu10,Aib16,Arg20,Glu21,Leu27,Lys28]-Glucagon amide] (H-H[Aib]QGTFTSDLSKYLD[Aib]RRAREFVQWLLK([γGlu-γGlu-AEEA-AEEA-γGlu-C18 diacid])T-NH2; N-terminus assumed)
